Experimental data published in PubChem BioAssay AID1963968 (Molecular Pharmacology Branch, DTP, NCI, 2024).

System: 945468-187-T-J3-PDC spheroids with HUVEC/MSC, viability
Test: Anticancer human tumor 945468-187-T-J3-PDC patient-derived rectal carcinoma cell line growth inhibition [PI3K]
Details: for IC50: curve of first compound; for viability, T/C: stronger effect = lower value
Procedure, shortened: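 We assembled tumor spheroids that included a stromal compartment of HUVEC and MSCs, then exposed them to targeted agents alone and together with PI3K pathway inhibitors. Concentration series descended by half-log from clinically achievable Cmax levels. Viability served as the endpoint.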

[1] = second compound 0.0316 µM, first compound 0.0316 µM
[2] = second compound 0.0316 µM, first compound 0.1 µM
[3] = second compound 0.0316 µM, first compound 0.316 µM
[4] = second compound 0.0316 µM, first compound 1 µM
[5] = second compound 0.0316 µM, first compound 3.16 µM
[6] = second compound 0.0316 µM, first compound 10 µM
[7] = second compound 0.1 µM, first compound 0.0316 µM
[8] = second compound 0.1 µM, first compound 0.1 µM
[9] = second compound 0.1 µM, first compound 0.316 µM
[10] = second compound 0.1 µM, first compound 1 µM
[11] = second compound 0.1 µM, first compound 3.16 µM
[12] = second compound 0.1 µM, first compound 10 µM
[13] = second compound 0.316 µM, first compound 0.0316 µM
[14] = second compound 0.316 µM, first compound 0.1 µM
[15] = second compound 0.316 µM, first compound 0.316 µM
[16] = second compound 0.316 µM, first compound 1 µM
[17] = second compound 0.316 µM, first compound 3.16 µM
[18] = second compound 0.316 µM, first compound 10 µM
[19] = second compound 1 µM, first compound 0.0316 µM
[20] = second compound 1 µM, first compound 0.1 µM
[21] = second compound 1 µM, first compound 0.316 µM
[22] = second compound 1 µM, first compound 1 µM
[23] = second compound 1 µM, first compound 3.16 µM
[24] = second compound 1 µM, first compound 10 µM
[25] = second compound 3.16 µM, first compound 0.0316 µM
[26] = second compound 3.16 µM, first compound 0.1 µM
[27] = second compound 3.16 µM, first compound 0.316 µM
[28] = second compound 3.16 µM, first compound 1 µM
[29] = second compound 3.16 µM, first compound 3.16 µM
[30] = second compound 3.16 µM, first compound 10 µM
[31] = second compound 10 µM, first compound 0.0316 µM
[32] = second compound 10 µM, first compound 0.1 µM
[33] = second compound 10 µM, first compound 0.316 µM
[34] = second compound 10 µM, first compound 1 µM
[35] = second compound 10 µM, first compound 3.16 µM
[36] = second compound 10 µM, first compound 10 µM
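Also: spheroids exposed to agents for 7 days before viability read.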
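For viability, T/C in this document: 100% = DMSO vehicle control viability.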

In the case of `C#Cc1c(F)ccc2cc(O)cc(-c3ncc4c(N5CC6CCC(C5)N6)nc(OCC56CCCN5CC(F)C6)nc4c3F)c12` (stereo unspecified) + Cc1nc(NC(=O)N2CCCC2C(N)=O)sc1-c1ccnc(C(C)(C)C(F)(F)F)c1, the IC50 (second compound 0.0316 µM) is reported as > 10 µM, the IC50 (second compound 0.1 µM) is reported as > 10 µM and the IC50 (second compound 0.316 µM) is reported as > 10 µM. The IC50 (second compound 1 µM) was > 10 µM, the IC50 (second compound 3.16 µM) was 7.25 µM and the IC50 (second compound 10 µM) was 0.464 µM. It also gave a viability, T/C [1] of 96.8%, a viability, T/C [2] of 101% and a viability, T/C [3] of 95.4%. It also gave a viability, T/C [4] of 107%, a viability, T/C [5] of 127% and a viability, T/C [6] of 119%. It also gave a viability, T/C [7] of 105%, a viability, T/C [8] of 115% and a viability, T/C [9] of 101%. The viability, T/C [10] was 113%, the viability, T/C [11] was 132% and the viability, T/C [12] was 115%. It also gave a viability, T/C [13] of 109%, a viability, T/C [14] of 105% and a viability, T/C [15] of 97.6%. The viability, T/C [16] was 113%, the viability, T/C [17] was 134% and the viability, T/C [18] was 118%. It also gave a viability, T/C [19] of 114%, a viability, T/C [20] of 110% and a viability, T/C [21] of 109%. It also gave a viability, T/C [22] of 112%, a viability, T/C [23] of 127% and a viability, T/C [24] of 106%. The viability, T/C [25] was 107%, the viability, T/C [26] was 110% and the viability, T/C [27] was 111%. For the same molecule, the viability, T/C [28] was 103%, the viability, T/C [29] was 80.9% and the viability, T/C [30] was 38%. For the same molecule, the viability, T/C [31] was 70.4%, the viability, T/C [32] was 59.9% and the viability, T/C [33] was 50%. The viability, T/C [34] was 47.8%, the viability, T/C [35] was 26.9% and the viability, T/C [36] was 9.1%.

For `CC(Cn1ccc(-c2ccc(C#N)c(Cl)c2)n1)NC(=O)c1cc(C(C)O)[nH]n1` (stereo unspecified) + Cc1nc(NC(=O)N2CCCC2C(N)=O)sc1-c1ccnc(C(C)(C)C(F)(F)F)c1, the IC50 (second compound 0.0316 µM) was > 10 µM, the IC50 (second compound 0.1 µM) was > 10 µM and the IC50 (second compound 0.316 µM) was > 10 µM. For the same molecule, the IC50 (second compound 1 µM) was > 10 µM, the IC50 (second compound 3.16 µM) was > 10 µM and the IC50 (second compound 10 µM) was > 10 µM. It also gave a viability, T/C [1] of 99.7%, a viability, T/C [2] of 104% and a viability, T/C [3] of 90.9%. It also gave a viability, T/C [4] of 93.4%, a viability, T/C [5] of 102% and a viability, T/C [6] of 92.7%. It also gave a viability, T/C [7] of 106%, a viability, T/C [8] of 101% and a viability, T/C [9] of 91.9%. For the same molecule, the viability, T/C [10] was 109%, the viability, T/C [11] was 106% and the viability, T/C [12] was 96.9%. The viability, T/C [13] was 95.6%, the viability, T/C [14] was 102% and the viability, T/C [15] was 93.8%. It also gave a viability, T/C [16] of 108%, a viability, T/C [17] of 98.8% and a viability, T/C [18] of 88.1%. It also gave a viability, T/C [19] of 112%, a viability, T/C [20] of 109% and a viability, T/C [21] of 98.1%. For the same molecule, the viability, T/C [22] was 112%, the viability, T/C [23] was 100% and the viability, T/C [24] was 98.8%. The viability, T/C [25] was 104%, the viability, T/C [26] was 102% and the viability, T/C [27] was 92.5%. It also gave a viability, T/C [28] of 91.7%, a viability, T/C [29] of 101% and a viability, T/C [30] of 104%. It also gave a viability, T/C [31] of 65.3%, a viability, T/C [32] of 58.1% and a viability, T/C [33] of 53.7%. For the same molecule, the viability, T/C [34] was 60.2%, the viability, T/C [35] was 54.4% and the viability, T/C [36] was 63%.

`CC1(C)CCC(Nc2ncc(C(F)(F)F)c(-c3c[nH]c4c(P(C)(C)=O)c(C#N)ccc34)n2)CN1` (stereo unspecified) + Cc1nc(NC(=O)N2CCCC2C(N)=O)sc1-c1ccnc(C(C)(C)C(F)(F)F)c1 gave an IC50 (second compound 0.0316 µM) of 5.65 µM, an IC50 (second compound 0.1 µM) of 5.41 µM and an IC50 (second compound 0.316 µM) of 5.06 µM. The IC50 (second compound 1 µM) was 4.44 µM, the IC50 (second compound 3.16 µM) was 1.9 µM and the IC50 (second compound 10 µM) was 0.841 µM. For the same molecule, the viability, T/C [1] was 81.7%, the viability, T/C [2] was 84.6% and the viability, T/C [3] was 72.8%. It also gave a viability, T/C [4] of 85.5%, a viability, T/C [5] of 101% and a viability, T/C [6] of 15.4%. The viability, T/C [7] was 91.4%, the viability, T/C [8] was 75.8% and the viability, T/C [9] was 79%. The viability, T/C [10] was 79.9%, the viability, T/C [11] was 84.4% and the viability, T/C [12] was 13.2%. The viability, T/C [13] was 82.5%, the viability, T/C [14] was 75.5% and the viability, T/C [15] was 65.4%. For the same molecule, the viability, T/C [16] was 75.9%, the viability, T/C [17] was 85% and the viability, T/C [18] was 11.2%. It also gave a viability, T/C [19] of 107%, a viability, T/C [20] of 76.7% and a viability, T/C [21] of 72.2%. The viability, T/C [22] was 86.7%, the viability, T/C [23] was 68% and the viability, T/C [24] was 7.36%. The viability, T/C [25] was 78.5%, the viability, T/C [26] was 72.2% and the viability, T/C [27] was 75.5%. For the same molecule, the viability, T/C [28] was 54.8%, the viability, T/C [29] was 44.5% and the viability, T/C [30] was 5.2%. It also gave a viability, T/C [31] of 65.1%, a viability, T/C [32] of 60% and a viability, T/C [33] of 50.6%. For the same molecule, the viability, T/C [34] was 44.5%, the viability, T/C [35] was 40.2% and the viability, T/C [36] was 2.06%.
